Measurements reported in patent US20020009464A1, “Modified glycosides, compositions comprised thereof and methods of use thereof” (priority 1997, published 2002).

Key:
[1] = Glass transition temperature (Tg) by differential scanning calorimetry; settings: DSC, average of two runs
From the text: The acetylated polyol was recovered by evaporating off the solvent and the derivative characterized by nuclear magnetic resonance spectroscopy (NMR) and differential scanning calorimetry (DSC).
Tgs were obtained as the average of two runs.

[2] = Release of model active from glass layers monitored by absorbance at 510 nm; format: physicochemical; settings: aqueous 5% Tween 20, constant agitation
From the text: Disperse Red 1 was incorporated as a model active in a glass of lactitol nonaacetate (ratio 0.1/100 g/g) by melt mixing. The release of model active from 0.5 mm and 3 mm thickness layers of glass, into either water or an aqueous solution of 5% Tween 20, was monitored by absorbance at 510 nm.

| time to complete release of active ([2]; 0.5 mm thickness glass) | time to complete release of active ([2]; 3 mm thickness glass) | Compound | Tg [1] |
| --- | --- | --- | --- |
| – | – | α-D-glucopyranosyl-1→6-mannitol nonaacetate [GPM nonaacetate] | 35 °C |
| 12 h | 72 h | CCN(CCO)c1ccc(N=Nc2ccc([N+](=O)[O-])cc2)cc1 [Disperse red 1] | – |
| – | – | α-D-glucopyranosyl-1→6-sorbitol nonaacetate [GPS nonaacetate] | 17.4 °C |
